Values quoted from earlier work in patent publication US11045444B2, “Composition and method for promoting eyelash and eyebrow growth exclusively containing naturally sourced ingredients” (Plume Cosmetics Inc., priority 2016, dated 2021).

solubility in water: approximately 0.001%
Compound: C=C[C@@]1(C)CC(=O)[C@]2(O)[C@@]3(C)[C@@H](O)CCC(C)(C)[C@@H]3[C@H](O)[C@H](OC(C)=O)[C@@]2(C)O1 [forskolin]
